In brackets after ≈: the same amount, converted by molar mass.

The subject of the test is Candida albicans. The test is described as follows: Antifungal activity against Candida albicans by serial dilution method. The format is functional. The following applies: read-out: -Log MIC (converted).
In the case of `Nc1ccc(-c2nc3ccccc3o2)cc1`, the MIC (usually the smallest concentration in the dilution series that meets the test's criterion for growth inhibition) was 119 µM (≈ 25 µg/mL).

For `c1ccc(CCc2nc3ccccc3[nH]2)cc1`, the MIC is 83.6 µM (≈ 18.6 µg/mL). The result for `Nc1ccc2oc(-c3ccc(F)cc3)nc2c1` reads 110 µM (≈ 25 µg/mL). In the case of `O=[N+]([O-])c1ccc2[nH]c(CSc3ccccc3)nc2c1` it was 43.9 µM (≈ 12.5 µg/mL); in that of `Cc1ccc2[nH]c(CSc3ccccc3)nc2c1`, 97.9 µM (≈ 24.9 µg/mL); in that of `Clc1ccc2oc(COc3ccccc3)nc2c1`, 45.3 µM (≈ 11.8 µg/mL). `Cc1ccc2nc(CSc3ccccc3)oc2c1`: the MIC was 97.9 µM (≈ 25 µg/mL).

With `COC(=O)c1ccc2[nH]c(COc3ccccc3)nc2c1`, the MIC was 88.5 µM (≈ 25 µg/mL).

`O=[N+]([O-])c1ccc2[nH]c(COc3ccccc3)nc2c1`: the MIC was 52.1 µM (≈ 14 µg/mL).

Regarding `Clc1ccc2[nH]c(CSc3ccccc3)nc2c1`, the MIC was 91 µM (≈ 25 µg/mL). For `c1ccc(NCc2nc3ccccc3[nH]2)cc1`, the MIC was 112 µM (≈ 25 µg/mL). Regarding `Clc1ccc(Cc2nc3ccccc3o2)cc1`, the MIC was 51.3 µM (≈ 12.5 µg/mL). The result for `O=[N+]([O-])c1ccc(Cc2nc3cc([N+](=O)[O-])ccc3o2)cc1` reads 20.9 µM (≈ 6.25 µg/mL); that for `Clc1ccc2[nH]c(COc3ccccc3)nc2c1`, 48.3 µM (≈ 12.5 µg/mL). The result for `Cc1ccc2[nH]c(CNc3ccccc3)nc2c1` reads 105 µM (≈ 25 µg/mL); that for `CC(=O)Nc1ccc(-c2nc3cc(C)ccc3o2)cc1`, 94 µM (≈ 25 µg/mL). For `COC(=O)c1ccc2[nH]c(CSc3ccccc3)nc2c1`, the MIC was 83.9 µM (≈ 25 µg/mL).

Turning to `O=[N+]([O-])c1ccc2oc(CCc3ccccc3)nc2c1`, the MIC is 46.7 µM (≈ 12.5 µg/mL).

On to `Nc1ccc(-c2nc3ncccc3o2)cc1`, for which the MIC is 59.3 µM (≈ 12.5 µg/mL). In the case of `CC(C)(C)c1ccc(-c2nc3ccccc3o2)cc1` it was 99.8 µM (≈ 25.1 µg/mL); in that of `CC(=O)Nc1ccc(-c2nc3cc(Cl)ccc3o2)cc1`, 87.3 µM (≈ 25 µg/mL). The result for `CCc1ccc(-c2nc3cc(Cl)ccc3o2)cc1` reads 97.1 µM (≈ 25 µg/mL); that for `Cc1ccc2nc(COc3ccccc3)oc2c1`, 104 µM (≈ 25 µg/mL); that for `O=[N+]([O-])c1ccc2oc(COc3ccc(Cl)cc3)nc2c1`, 82 µM (≈ 25 µg/mL).

Take `O=[N+]([O-])c1cc2oc(CSc3ccccc3)nc2cc1Cl`: the MIC was 39 µM (≈ 12.5 µg/mL). In the case of `COC(=O)c1ccc2oc(CSc3ccccc3)nc2c1` it was 41.8 µM (≈ 12.5 µg/mL); in that of `Cc1ccc2oc(-c3ccc(N(C)C)cc3)nc2c1`, 99.1 µM (≈ 25 µg/mL). In the case of `Cc1ccc(-c2nc3ncccc3o2)cc1` it was 59.6 µM (≈ 12.5 µg/mL). In the case of `Clc1ccc(-c2nc3cc(Cl)ccc3o2)cc1` it was 94.6 µM (≈ 25 µg/mL).

Regarding `O=[N+]([O-])c1ccc(-c2nc3cc(Cl)ccc3o2)cc1`, the MIC was 91.2 µM (≈ 25 µg/mL). In the case of `Cc1ccc(-c2nc3cc([N+](=O)[O-])ccc3o2)cc1` it was 49.2 µM (≈ 12.5 µg/mL). In the case of `CC(C)(C)c1ccc(-c2nc3cc([N+](=O)[O-])ccc3o2)cc1` it was 42.2 µM (≈ 12.5 µg/mL).

Turning to `CNc1ccc(-c2nc3cc(Cl)ccc3o2)cc1`, the MIC was 94.4 µM (≈ 24.4 µg/mL).

`O=[N+]([O-])c1cc2oc(COc3ccc(Cl)cc3)nc2cc1Cl`: the MIC was 148 µM (≈ 50 µg/mL).

Take `O=[N+]([O-])c1ccc2oc(CSc3ccccc3)nc2c1`: the MIC was 43.8 µM (≈ 12.5 µg/mL). In the case of `Clc1ccc(OCc2nc3cc(Cl)ccc3o2)cc1` it was 84.9 µM (≈ 25 µg/mL); in that of `Clc1ccc(OCc2nc3ccccc3s2)cc1`, 181 µM (≈ 49.9 µg/mL). The result for `COc1ccc(-c2nc3ncccc3o2)cc1` reads 55.3 µM (≈ 12.5 µg/mL); that for `CCOc1ccc(-c2nc3ncccc3o2)cc1`, 52.1 µM (≈ 12.5 µg/mL); that for `O=[N+]([O-])c1ccc(Cc2nc3ccccc3o2)cc1`, 49.2 µM (≈ 12.5 µg/mL). In the case of `Clc1ccc2oc(Cc3ccccc3)nc2c1` it was 51.3 µM (≈ 12.5 µg/mL). As for `Nc1ccc(-c2nc3cc([N+](=O)[O-])ccc3o2)cc1`, the MIC is 49 µM (≈ 12.5 µg/mL).

On to `c1ccc(Cc2nc3ccccc3o2)cc1`, for which the MIC is 59.8 µM (≈ 12.5 µg/mL). In the case of `Cc1ccc2nc(COc3ccc(Cl)cc3)oc2c1` it was 183 µM (≈ 50 µg/mL); in that of `O=[N+]([O-])c1ccc(-c2nc3ncccc3o2)cc1`, 51.9 µM (≈ 12.5 µg/mL). With `COc1ccc(Cc2nc3cc(Cl)ccc3o2)cc1`, the MIC is 45.7 µM (≈ 12.5 µg/mL). In the case of `Clc1ccc2oc(Cc3ccc(Br)cc3)nc2c1` it was 38.9 µM (≈ 12.6 µg/mL); in that of `O=[N+]([O-])c1ccc2oc(Cc3ccc(Cl)cc3)nc2c1`, 21.7 µM (≈ 6.26 µg/mL). In the case of `CCc1ccc(-c2nc3cc(N)ccc3o2)cc1` it was 105 µM (≈ 25 µg/mL); in that of `CN(C)c1ccc(-c2nc3cc(N)ccc3o2)cc1`, 98.9 µM (≈ 25 µg/mL). The result for `Cc1ccc(-c2nc3cc(C)ccc3o2)cc1` reads 112 µM (≈ 25.1 µg/mL); that for `CCc1ccc(-c2nc3cc(C)ccc3o2)cc1`, 105 µM (≈ 25 µg/mL); that for `COc1ccc(-c2nc3cc(C)ccc3o2)cc1`, 105 µM (≈ 25.1 µg/mL). For the compound `Cc1ccc2oc(COc3ccccc3)nc2c1`, the MIC was 105 µM (≈ 25.1 µg/mL). In the case of `c1ccc(OCc2nc3ncccc3o2)cc1` it was 55 µM (≈ 12.4 µg/mL). For `Clc1ccc(OCc2nc3ncccc3o2)cc1`, the MIC is 48 µM (≈ 12.5 µg/mL). Consider `c1ccc(CCc2nc3ncccc3o2)cc1`, for which the MIC was 55.8 µM (≈ 12.5 µg/mL). The result for `Clc1ccc(OCc2nc3ccccc3o2)cc1` reads 96.4 µM (≈ 25 µg/mL); that for `O=[N+]([O-])c1ccc2nc(COc3ccc(Cl)cc3)oc2c1`, 164 µM (≈ 50 µg/mL). In the case of `c1ccc(SCc2nc3ccccc3[nH]2)cc1` it was 52 µM (≈ 12.5 µg/mL); in that of `Cc1ccc2[nH]c(CCc3ccccc3)nc2c1`, 52.8 µM (≈ 12.5 µg/mL). The result for `Cc1ccc2oc(-c3ccc(F)cc3)nc2c1` reads 110 µM (≈ 25 µg/mL); that for `Clc1ccc(OCc2nc3ccccc3[nH]2)cc1`, 96.6 µM (≈ 25 µg/mL). As to `CCc1ccc(-c2nc3ncccc3o2)cc1`, the MIC is 55.8 µM (≈ 12.5 µg/mL). In the case of `O=[N+]([O-])c1ccc2oc(-c3ccccc3)nc2c1` it was 52.2 µM (≈ 12.5 µg/mL). In the case of `COc1ccc(Cc2nc3ccccc3o2)cc1` it was 52.2 µM (≈ 12.5 µg/mL); in that of `O=[N+]([O-])c1ccc2oc(Cc3ccc(Br)cc3)nc2c1`, 18.8 µM (≈ 6.28 µg/mL).

On to `O=[N+]([O-])c1ccc2oc(-c3ccc(Cl)cc3)nc2c1`, for which the MIC was 45.5 µM (≈ 12.5 µg/mL). In the case of `Cc1ccc2oc(COc3ccc(Cl)cc3)nc2c1` it was 183 µM (≈ 50 µg/mL); in that of `Cc1ccc2[nH]c(COc3ccccc3)nc2c1`, 105 µM (≈ 25 µg/mL). `O=[N+]([O-])c1ccc2oc(-c3ccc(Br)cc3)nc2c1`: the MIC was 39.3 µM (≈ 12.5 µg/mL). The result for `O=[N+]([O-])c1ccc(Cc2nc3cc(Cl)ccc3o2)cc1` reads 43.4 µM (≈ 12.5 µg/mL). In the case of `COc1ccc(Cc2nc3cc([N+](=O)[O-])ccc3o2)cc1` it was 22 µM (≈ 6.26 µg/mL). The result for `COC(=O)c1ccc2oc(COc3ccccc3)nc2c1` reads 88.3 µM (≈ 25 µg/mL).

For the compound `c1ccc(OCc2nc3ccccc3o2)cc1`, the MIC is 111 µM (≈ 25 µg/mL). In the case of `O=[N+]([O-])c1ccc2oc(COc3ccccc3)nc2c1` it was 92.5 µM (≈ 25 µg/mL); in that of `O=[N+]([O-])c1ccc2nc(COc3ccccc3)oc2c1`, 185 µM (≈ 50.1 µg/mL); in that of `O=[N+]([O-])c1ccc2nc(CSc3ccccc3)oc2c1`, 43.7 µM (≈ 12.5 µg/mL). In the case of `CNc1ccc(-c2nc3cc(C)ccc3o2)cc1` it was 105 µM (≈ 25 µg/mL); in that of `COC(=O)c1ccc2[nH]c(COc3ccc(Cl)cc3)nc2c1`, 79.1 µM (≈ 25 µg/mL). The result for `Clc1ccc(OCc2nc3cc(Cl)ccc3[nH]2)cc1` reads 42.7 µM (≈ 12.5 µg/mL); that for `Clc1ccc2[nH]c(CCc3ccccc3)nc2c1`, 97.3 µM (≈ 25 µg/mL); that for `CNc1ccc(-c2nc3ccccc3o2)cc1`, 112 µM (≈ 25 µg/mL). Take `Nc1ccc2oc(-c3ccc(Br)cc3)nc2c1`: the MIC was 77.6 µM (≈ 22.4 µg/mL). The result for `Cc1ccc2oc(CSc3ccccc3)nc2c1` reads 97.9 µM (≈ 25 µg/mL).

As to `Cc1ccc2[nH]c(COc3ccc(Cl)cc3)nc2c1`, the MIC was 91.8 µM (≈ 25 µg/mL).

For the compound `Brc1ccc(Cc2nc3ccccc3o2)cc1`, the MIC is 43.7 µM (≈ 12.6 µg/mL).

Regarding `O=[N+]([O-])c1cc2oc(COc3ccccc3)nc2cc1Cl`, the MIC is 164 µM (≈ 50 µg/mL). For `c1ccc(SCc2nc3ccccc3o2)cc1`, the MIC was 51.8 µM (≈ 12.5 µg/mL). The result for `c1ccc(OCc2nc3ccccc3[nH]2)cc1` reads 111 µM (≈ 25 µg/mL); that for `COC(=O)c1ccc2oc(COc3ccc(Cl)cc3)nc2c1`, 78.7 µM (≈ 25 µg/mL); that for `O=[N+]([O-])c1ccc2oc(Cc3ccccc3)nc2c1`, 24.6 µM (≈ 6.26 µg/mL). The result for `c1ccc(OCc2nc3ccccc3s2)cc1` [2-(PHENOXYMETHYL)BENZOTHIAZOLE] reads 207 µM (≈ 50 µg/mL); that for `c1ccc(SCc2nc3ccccc3s2)cc1` [2-(PHENYLTHIOMETHYL)BENZO[D]THIAZOLE], 97.1 µM (≈ 25 µg/mL); that for `c1ccc(-c2nc3ccccc3o2)cc1` [2-PHENYLBENZO[D]OXAZOLE], 128 µM (≈ 25 µg/mL).

The record behind these values is ChEMBL document CHEMBL1147189, “QSAR analysis for heterocyclic antifungals” (2007).
